Laboratory results published in article PMC11672637, “7-O-Carboxylic Acid-Substituted 3-O-Alkyl Difluoroquercetin; An Aztreonam-Potentiating Agent Against Carbapenemase-Producing Pseudomonas aeruginosa Through Simultaneous Inhibition of Metallo-β-Lactamase and Efflux Pump” (Antibiotics, 2024).
Where two headings read alike, the source gives them in different places.

Assays:
Test in all cases: MIC / checkerboard with ATM
Set-up in all cases: key to Susceptibility category: S: susceptible; I: intermediate; R: resistant
PA-030, blaIMP = format: cell-based, P. aeruginosa; settings: PA-030
PA-034, blaNDM = format: cell-based, P. aeruginosa; settings: PA-034
[1] = system: NDM-1-Producing P. aeruginosa (PA-017, blaNDM); format: cell-based; settings: PA-017
PA-028, blaNDM = format: cell-based, P. aeruginosa; settings: for MIC: Pseudomonas aeruginosa
PA-038, blaNDM = format: cell-based, P. aeruginosa; settings: PA-038
PA-037, blaIMP/NDM = format: cell-based, P. aeruginosa; settings: for MIC: Pseudomonas aeruginosa
PA-041, blaNDM = format: cell-based, P. aeruginosa; settings: for MIC: Pseudomonas aeruginosa
PA-025, blaNDM = format: cell-based, P. aeruginosa; settings: PA-025
PA-016, blaIMP = format: cell-based, P. aeruginosa
PA-027, blaIMP = format: cell-based, P. aeruginosa; settings: for MIC: Pseudomonas aeruginosa

C[C@H]1[C@H](NC(=O)/C(=N\OC(C)(C)C(=O)O)c2csc(N)n2)C(=O)N1S(=O)(=O)O [ATM, aztreonam]
Susceptibility to ATM (PA-030, blaIMP; ATM alone): R (R (resistant, MIC ≥ 32 mg/L))
Susceptibility category (PA-030, blaIMP; Table S2): R
MIC (PA-030, blaIMP; Pseudomonas aeruginosa, Table S2, read-out: MIC value): 32 µg/mL
Susceptibility to ATM (PA-034, blaNDM; ATM alone): I (I (intermediate, MIC = 16 mg/L))
Susceptibility category (PA-034, blaNDM; Table S2): I
Susceptibility to ATM ([1]; ATM alone): I (I (intermediate, MIC = 16 mg/L))
Susceptibility category ([1]; Table S2): I
Susceptibility to ATM (PA-028, blaNDM; PA-028, ATM alone): S (S (sensitive, MIC ≤ 8 mg/L))
Susceptibility category (PA-028, blaNDM; PA-028, Table S2): S
MIC (PA-028, blaNDM; PA-028, Table S2, read-out: MIC value): 4 µg/mL
MIC (PA-028, blaNDM; read-out: MIC of ATM, PA-028, ATM alone (5 at 0 mg/L)): 8 µg/mL
Susceptibility to ATM (PA-038, blaNDM; ATM alone): I (I (intermediate, MIC = 16 mg/L))
Susceptibility category (PA-038, blaNDM; Table S2): I
Susceptibility to ATM (PA-037, blaIMP/NDM; PA-037, ATM alone): S (S (sensitive, MIC ≤ 8 mg/L))
Susceptibility category (PA-037, blaIMP/NDM; PA-037, Table S2): S
MIC (PA-037, blaIMP/NDM; PA-037, Table S2, read-out: MIC value): 2 µg/mL
MIC (PA-037, blaIMP/NDM; read-out: MIC of ATM, PA-037, ATM alone (5 at 0 mg/L)): 4 µg/mL
Susceptibility to ATM (PA-041, blaNDM; PA-041, ATM alone): S (S (sensitive, MIC ≤ 8 mg/L))
Susceptibility category (PA-041, blaNDM; PA-041, Table S2): S
MIC (PA-041, blaNDM; PA-041, Table S2, read-out: MIC value): 4 µg/mL
MIC (PA-041, blaNDM; read-out: MIC of ATM, PA-041, ATM alone (5 at 0 mg/L)): 4 µg/mL
Susceptibility to ATM (PA-025, blaNDM; ATM alone): I (I (intermediate, MIC = 16 mg/L))
Susceptibility category (PA-025, blaNDM; Table S2): I
Susceptibility to ATM (PA-016, blaIMP; PA-016, ATM alone): R (R (resistant, MIC ≥ 32 mg/L))
Susceptibility category (PA-016, blaIMP; PA-016, Table S2): R
MIC (PA-016, blaIMP; Pseudomonas aeruginosa, read-out: MIC of ATM, PA-016, ATM alone (5 at 0 mg/L)): 32 µg/mL
Susceptibility to ATM (PA-027, blaIMP; PA-027, ATM alone): R (R (resistant, MIC ≥ 32 mg/L))
Susceptibility category (PA-027, blaIMP; PA-027, Table S2): R
MIC (PA-027, blaIMP; PA-027, Table S2, read-out: MIC value): 32 µg/mL
MIC (PA-027, blaIMP; read-out: MIC of ATM, PA-027, ATM alone (5 at 0 mg/L)): 32 µg/mL
